# Earlier results as cited in patent US20090186859A1, “DIAZENIUMDIOLATED NON-STEROIDAL ANTI-INFLAMMATORY DRUGS, COMPOSITIONS THEREOF, AND RELATED METHODS” (THE UNITED STATES OF AMERICA, AS REPRESENTED BY THE SEC., …, priority 2006, published 2009).
# Experiments:
# intestinal tumorigenesis = details: APC (DELTA 716) mice
# [1] = long-term administration to animals
# [2] = tested on: hormone-positive tumors (estrogen receptor (ER) or progesterone receptor (PR)-positive); details: women who took aspirin seven or more times a week vs women who did not take it
# colon carcinogenesis = details: AOM-treated rat model
# colon polyp formation = details: those at high risk, including those already treated for colorectal cancer
# tumor = details: APC(Min)+ mouse model
# [3] = tested on: colonic aberrant crypt foci; details: male F344 rats
smiles,measurement,setting,value
CS(=O)(=O)c1ccc(C2=C(c3ccc(F)c(F)c3)C(=O)OC2)cc1 [MF-Tricyclic],intestinal tumorigenesis,intestinal tumorigenesis,blocks intestinal tumorigenesis
O=NN1CCC[C@H]1C(=O)O [N-nitrosoproline],tumorigenicity,[1],none of these studies showed it to be tumorigenic
"CC(=O)Oc1ccccc1C(=O)O [aspirin, acetylsalicylic acid]",lower risk of developing hormone-positive tumors,[2],26%
same,inhibition of colon carcinogenesis,colon carcinogenesis,effectively inhibit colon carcinogenesis
same,colon polyp formation,colon polyp formation,significantly reduce colon polyp formation
CC(C(=O)O)c1ccc(-c2ccccc2)c(F)c1 (stereo not drawn) [flurbiprofen],anti-tumor effects,tumor,demonstrated anti-tumor effects
CC(C)Cc1ccc(C(C)C(=O)O)cc1 (stereo not drawn) [ibuprofen],inhibition of colon carcinogenesis,colon carcinogenesis,effectively inhibit colon carcinogenesis
COc1ccc2c(c1)c(CC(=O)O)c(C)n2C(=O)c1ccc(Cl)cc1 [indomethacin],inhibition of colon carcinogenesis,colon carcinogenesis,effectively inhibit colon carcinogenesis
COc1ccc2cc(CCC(C)=O)ccc2c1 [nabumetone],formation of colonic aberrant crypt foci,[3],inhibit formation of colonic aberrant crypt foci
CS(=O)(=O)Nc1ccc([N+](=O)[O-])cc1Oc1ccccc1 [nemisulide],formation of colonic aberrant crypt foci,[3],inhibit formation of colonic aberrant crypt foci
CN1C(C(=O)Nc2ccccn2)=C(O)c2ccccc2S1(=O)=O [piroxicam],inhibition of colon carcinogenesis,colon carcinogenesis,effectively inhibit colon carcinogenesis
CC1=C(CC(=O)O)c2cc(F)ccc2/C1=C\c1ccc([S+](C)[O-])cc1 (stereo not drawn) [sulindac],inhibition of colon carcinogenesis,colon carcinogenesis,effectively inhibit colon carcinogenesis
